What follows are molecules tested against DCN1 (Homo sapiens (Human), UniProt Q96GG9) (assay: TR-FRET binding assay (biotin-DCN1 / Ac-UBE2M12-AlexaFluor488)). Details: mean ± SD (n); read-out: DCN1_TRFRET Mean EC50.
Protocol: • IC50 values were generated using our TR-FRET binding assay and are represented as the mean of three replicates with errors reported as the standard deviation.
The assay cocktail was then incubated for 1 h at room temperature and distributed using a WellMate instrument (Matrix). Compounds to be screened were added to assay plates from DMSO stock solutions by pin transfer using 50SS pins (V&P Scientific). […] All compounds were tested in triplicate or more.

DCN1, sequence (Q96GG9 whole entry): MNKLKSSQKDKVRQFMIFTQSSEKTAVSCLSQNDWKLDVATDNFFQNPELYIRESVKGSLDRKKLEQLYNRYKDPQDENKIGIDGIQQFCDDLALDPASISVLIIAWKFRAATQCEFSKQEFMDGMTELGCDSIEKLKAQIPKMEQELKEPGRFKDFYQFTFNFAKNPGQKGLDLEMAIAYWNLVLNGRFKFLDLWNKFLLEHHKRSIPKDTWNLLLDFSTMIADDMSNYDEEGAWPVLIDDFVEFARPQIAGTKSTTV

SMILES | EC50
Cc1cccc(C(=O)N[C@@H]2C(=O)N(C)c3c(c(C)nn3-c3ccccc3)[C@@H]2c2ccc(F)cc2)c1 [RG-0005655, N-[(4S,5S)-4-(4-fluorophenyl)-3,7-dimethyl-6-oxo-1-phenyl-1H,4H,5H,6H,7H-pyrazolo[3,4-b]pyridin-5-yl]-3-methylbenzamide] | 446 ± 68.1 nM
CC(=O)N1C(=O)[C@@H](NC(=O)c2cccc(C)c2)[C@@H](c2ccc(F)cc2)c2c(C)nn(-c3ccccc3)c21 [RG-0005656, N-[(4S,5S)-7-acetyl-4-(4-fluorophenyl)-3-methyl-6-oxo-1-phenyl-1H,4H,5H,6H,7H-pyrazolo[3,4-b]pyridin-5-yl]-3-methylbenzamide] | 5640 ± 827 nM
CCC(C)n1nc(C)c2c1N(C(C)=O)C(=O)[C@@H](NC(=O)c1cccc(C)c1)[C@H]2c1ccc(F)cc1 (stereo partly drawn) [RG-0005665, N-[(4S,5S)-7-acetyl-1-(butan-2-yl)-4-(4-fluorophenyl)-3-methyl-6-oxo-1H,4H,5H,6H,7H-pyrazolo[3,4-b]pyridin-5-yl]-3-methylbenzamide] | 5310 ± 850 nM
CCCn1nc(C)c2c1N(C)C(=O)[C@@H](NC(=O)c1cccc(C)c1)[C@H]2c1ccc(F)cc1 [RG-0007411, N-[(4S,5S)-4-(4-fluorophenyl)-3,7-dimethyl-6-oxo-1-propyl-1H,4H,5H,6H,7H-pyrazolo[3,4-b]pyridin-5-yl]-3-methylbenzamide] | 585 ± 106 nM
Cc1cccc(C(=O)N[C@@H]2C(=O)N(C)c3c(c(C)nn3C(C)(C)C)[C@@H]2c2ccc(F)cc2)c1 [RG-0007412, N-[(4S,5S)-1-tert-butyl-4-(4-fluorophenyl)-3,7-dimethyl-6-oxo-1H,4H,5H,6H,7H-pyrazolo[3,4-b]pyridin-5-yl]-3-methylbenzamide] | 2340 ± 745 nM
CCCN1C(=O)[C@@H](NC(=O)c2cccc(C)c2)[C@@H](c2ccc(F)cc2)c2c(C)nn(-c3ccccc3)c21 [RG-0007415, N-[(4S,5S)-4-(4-fluorophenyl)-3-methyl-6-oxo-1-phenyl-7-propyl-1H,4H,5H,6H,7H-pyrazolo[3,4-b]pyridin-5-yl]-3-methylbenzamide] | 1040 ± 204 nM
CCCn1nc(C)c2c1N(CC)C(=O)[C@@H](NC(=O)c1cccc(C)c1)[C@H]2c1ccc(F)cc1 [RG-0008665, N-[(4S,5S)-7-ethyl-4-(4-fluorophenyl)-3-methyl-6-oxo-1-propyl-1H,4H,5H,6H,7H-pyrazolo[3,4-b]pyridin-5-yl]-3-methylbenzamide] | 244 ± 20.8 nM
CCCN1C(=O)[C@@H](NC(=O)c2cccc(C)c2)[C@@H](c2ccc(F)cc2)c2c(C)nn(CCC)c21 [RG-0008666, N-[(4S,5S)-4-(4-fluorophenyl)-3-methyl-6-oxo-1,7-dipropyl-1H,4H,5H,6H,7H-pyrazolo[3,4-b]pyridin-5-yl]-3-methylbenzamide] | 1170 ± 99.3 nM
Cc1cccc(C(=O)N[C@@H]2C(=O)N(C(C)C)c3c(c(C)nn3-c3ccccc3)[C@@H]2c2ccc(F)cc2)c1 [RG-0008670, N-[(4S,5S)-4-(4-fluorophenyl)-3-methyl-6-oxo-1-phenyl-7-(propan-2-yl)-1H,4H,5H,6H,7H-pyrazolo[3,4-b]pyridin-5-yl]-3-methylbenzamide] | 4140 ± 765 nM
CCCN1CCN2C(=O)[C@@H](NC(=O)c3cccc(C)c3)[C@@H](c3ccc(F)cc3)C(C(C)=O)=C12 [RG-0008677, N-[(6S,7S)-8-acetyl-7-(4-fluorophenyl)-5-oxo-1-propyl-1H,2H,3H,5H,6H,7H-imidazo[1,2-a]pyridin-6-yl]-3-methylbenzamide] | 5790 nM
Cc1cccc(C(=O)N[C@@H]2C(=O)N3CCCn4nc(C)c(c43)[C@@H]2c2ccc(F)cc2)c1 [RG-0008682, N-[(5S,6S)-5-(4-fluorophenyl)-3-methyl-7-oxo-1,2,8-triazatricyclo[6.3.1.0^4,^12]dodeca-2,4(12)-dien-6-yl]-3-methylbenzamide] | 12300 nM
COCN1C(=O)[C@@H](NC(=O)c2cccc(C)c2)[C@@H](c2ccc(F)cc2)c2c(C)nn(-c3ccccc3)c21 [RG-0008859, N-[(4S,5S)-4-(4-fluorophenyl)-7-(methoxymethyl)-3-methyl-6-oxo-1-phenyl-1H,4H,5H,6H,7H-pyrazolo[3,4-b]pyridin-5-yl]-3-methylbenzamide] | 491 ± 25.5 nM

From US12409171B2, “Pharmaceutically active pyrazolo-pyridone modulators of DCN1/2-mediated cullin neddylation” (UNIVERSITY OF KENTUCKY RESEARCH FOUNDATION, priority 2019, dated 2025)
